Patent US20250282785A1, “PYRROLIDINONE DERIVATIVES AS INHIBITORS OF NF KAPPA B INDUCING KINASE” (priority 2022, published 2025)

Assays:
[1] = tested on: p-IKKα levels in L363 (NIK translocated multiple myeloma) cells; assay: Effect of compounds on p-IKKα levels in L363 cells (AlphaLISA SureFire Ultra); type: cell-based; settings: Homo sapiens, L-363; L363 cells, BAFF stimulated, MG132, 6 h; average of values; read-out: Assay 2 IC50
In short: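 Phospho-IKKα (Ser 176/180) was quantified by AlphaLISA in lysed L363 cells after 6 h compound exposure (0.3% DMSO, 11 points, 1:3) alongside 250 ng/ml BAFF and 10 uM MG132, following overnight BAFF priming in low-serum DMEM. Duplicate curves were scaled between BAFF/DMSO/MG132 and unstimulated DMSO wells, then fitted sigmoidally for IC50.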

[2] = biological target: Recombinant Human NF-Kappab-Inducing Kinase (NIK/MAP3K14) (Homo sapiens, UniProt Q99558); assay: Inhibition of auto-phosphorylation of recombinant human NIK/MAP3K14 (AlphaScreen); type: biochemical; settings: NIK/MAP3K14 auto-phosphorylation, 5 microM ATP, 1 nM enzyme, 2 h at 25° C.; average of values; read-out: Assay 1 IC50
In short: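 AlphaScreen read-out used anti-phospho-IKK Ser176/180 antibody after 2 h, 25 °C incubation of compound, 1 nM GST-NIK and 5 µM ATP (final DMSO 0.7%). Percent inhibition referenced to high (enzyme) and low (no enzyme, no ATP) controls; sigmoidal curve fitting gave IC50.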

Sequence of Recombinant Human NF-Kappab-Inducing Kinase (NIK/MAP3K14) (Q99558 whole entry): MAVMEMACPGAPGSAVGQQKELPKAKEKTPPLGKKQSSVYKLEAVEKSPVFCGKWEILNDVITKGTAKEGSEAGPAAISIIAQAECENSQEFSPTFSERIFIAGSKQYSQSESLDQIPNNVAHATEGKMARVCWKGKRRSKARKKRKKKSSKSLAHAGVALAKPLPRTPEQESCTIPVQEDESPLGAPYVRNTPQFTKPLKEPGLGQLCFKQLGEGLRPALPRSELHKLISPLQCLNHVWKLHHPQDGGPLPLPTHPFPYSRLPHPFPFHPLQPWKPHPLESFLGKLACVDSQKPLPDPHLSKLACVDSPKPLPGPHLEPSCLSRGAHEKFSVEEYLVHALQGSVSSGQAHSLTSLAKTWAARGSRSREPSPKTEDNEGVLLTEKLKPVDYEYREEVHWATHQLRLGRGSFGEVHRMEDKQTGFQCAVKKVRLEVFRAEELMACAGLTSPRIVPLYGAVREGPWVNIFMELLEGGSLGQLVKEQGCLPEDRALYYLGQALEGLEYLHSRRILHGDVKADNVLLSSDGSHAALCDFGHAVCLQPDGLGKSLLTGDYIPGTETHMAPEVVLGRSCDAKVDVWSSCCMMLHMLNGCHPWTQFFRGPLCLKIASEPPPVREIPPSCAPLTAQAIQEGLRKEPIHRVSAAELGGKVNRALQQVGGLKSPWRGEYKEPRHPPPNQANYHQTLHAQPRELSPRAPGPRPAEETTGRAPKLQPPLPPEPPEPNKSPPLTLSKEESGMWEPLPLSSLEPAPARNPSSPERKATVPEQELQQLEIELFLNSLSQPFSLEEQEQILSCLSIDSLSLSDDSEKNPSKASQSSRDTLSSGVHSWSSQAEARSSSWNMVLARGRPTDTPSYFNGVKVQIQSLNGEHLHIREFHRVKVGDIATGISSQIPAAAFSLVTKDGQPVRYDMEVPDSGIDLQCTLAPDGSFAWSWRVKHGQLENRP

Cc1cn2nc(-c3cccc(-c4cc([C@]5(O)CCN(C)C5=O)on4)c3)ccc2n1 [Example 65, (R)-3-Hydroxy-1-methyl-3-(3-(3-(2-methylimidazo[1,2-b]pyridazin-6-yl)phenyl)isoxazol-5-yl)pyrrolidin-2-one]
IC50 [1]: > 501 nM
IC50 [2]: > 501 nM

CN1CC[C@@](O)(c2cc(-c3cccc(-c4ccc5occc5n4)c3)no2)C1=O [Example 66, (R)-3-(3-(3-(Furo[3,2-b]pyridin-5-yl)phenyl)isoxazol-5-yl)-3-hydroxy-1-methylpyrrolidin-2-one]
IC50 [1]: > 501 nM
IC50 [2]: > 501 nM

CN1CC[C@@](O)(c2cc(-c3cccc(-c4ccn5cncc5c4)c3)no2)C1=O [Example 67, (R)-3-Hydroxy-3-(3-(3-(imidazo[1,5-a]pyridin-7-yl)phenyl)isoxazol-5-yl)-1-methylpyrrolidin-2-one]
IC50 [1]: > 501 nM
IC50 [2]: 100 to 500 nM

CN1CC[C@@](O)(c2cc(-c3cccc(-c4ccn5nccc5n4)c3)no2)C1=O [Example 68, (R)-3-Hydroxy-1-methyl-3-(3-(3-(pyrazolo[1,5-a]pyrimidin-5-yl)phenyl)isoxazol-5-yl)pyrrolidin-2-one]
IC50 [1]: > 501 nM
IC50 [2]: > 501 nM

CN1CC[C@@](O)(c2cc(-c3cccc(-c4ccc5ncoc5c4)c3)no2)C1=O [Example 69, (R)-3-(3-(3-(Benzo[d]oxazol-6-yl)phenyl)isoxazol-5-yl)-3-hydroxy-1-methylpyrrolidin-2-one]
IC50 [1]: > 501 nM
IC50 [2]: > 501 nM

CN1CC[C@@](O)(c2cc(-c3cccc(-c4cn5ccnc5cn4)c3)no2)C1=O [Example 70, (R)-3-Hydroxy-3-(3-(3-(imidazo[1,2-a]pyrazin-6-yl)phenyl)isoxazol-5-yl)-1-methylpyrrolidin-2-one]
IC50 [1]: > 501 nM
IC50 [2]: > 501 nM

CN1CC[C@@](O)(c2cc(-c3cccc(-c4ccc5nccn5c4)c3)no2)C1=O [Example 71, (R)-3-Hydroxy-3-(3-(3-(imidazo[1,2-a]pyridin-6-yl)phenyl)isoxazol-5-yl)-1-methylpyrrolidin-2-one]
IC50 [1]: > 501 nM
IC50 [2]: > 501 nM

CN1CC[C@@](O)(c2cc(-c3cccc(-c4ncnc5sccc45)c3)no2)C1=O [Example 72, (R)-3-Hydroxy-1-methyl-3-(3-(3-(thieno[2,3-d]pyrimidin-4-yl)phenyl)isoxazol-5-yl)pyrrolidin-2-one]
IC50 [1]: > 501 nM
IC50 [2]: > 501 nM

CCc1c[nH]c2ncnc(-c3cccc(-c4cc([C@]5(O)CCN(C)C5=O)on4)c3)c12 [Example 73, (R)-3-(3-(3-(5-Ethyl-7H-pyrrolo[2,3-d]pyrimidin-4-yl)phenyl)isoxazol-5-yl)-3-hydroxy-1-methylpyrrolidin-2-one]
IC50 [1]: > 501 nM
IC50 [2]: > 501 nM

CN1CC[C@@](O)(c2cc(-c3cccc(-c4ccc5nnc(N)n5c4)c3)no2)C1=O [Example 74, (R)-3-(3-(3-(3-Amino-[1,2,4]triazolo[4,3-a]pyridin-6-yl)phenyl)isoxazol-5-yl)-3-hydroxy-1-methylpyrrolidin-2-one]
IC50 [1]: > 501 nM
IC50 [2]: > 501 nM

CN1CC[C@@](O)(c2cc(-c3cccc(-c4cc5c[nH]nc5cn4)c3)no2)C1=O [Example 75, (R)-3-(3-(3-(2H-pyrazolo[3,4-c]pyridin-5-yl)phenyl)isoxazol-5-yl)-3-hydroxy-1-methylpyrrolidin-2-one]
IC50 [1]: > 501 nM
IC50 [2]: 100 to 500 nM

COc1cc(-c2cccc(-c3cc([C@]4(O)CCN(C)C4=O)on3)c2)cc2c1cnn2C [Example 76, (R)-3-Hydroxy-3-(3-(3-(4-methoxy-1-methyl-1H-indazol-6-yl)phenyl)isoxazol-5-yl)-1-methylpyrrolidin-2-one]
IC50 [1]: > 501 nM
IC50 [2]: 100 to 500 nM

CN1CC[C@@](O)(c2cc(-c3cccc(-c4cccc5[nH]ccc45)c3)no2)C1=O [Example 77, (R)-3-(3-(3-(1H-Indol-4-yl)phenyl)isoxazol-5-yl)-3-hydroxy-1-methylpyrrolidin-2-one]
IC50 [1]: > 501 nM
IC50 [2]: > 501 nM
